Patent US8889712B2, “IAP antagonists” (Bristol-Myers Squibb Company, priority 2012, dated 2014)
Read-outs that look alike come from different tables or passages of the source.

What was measured:
[1] = target: T1, XIAP BIR2-3 (Homo sapiens, UniProt P98170, C202A/C213G); experiment: XIAP-BIR2-3 dimeric SMAC Peptide Homogeneous Time Resolved Fluorescence (HTRF) Assay; format: binding
T1 construct: His-BIR2-3 (125-356, C202A/C213G, XIAP)
Experimental: B. […] Assays were performed in black, flat-bottom, 384-well plates. […] Compounds were dissolved at 3 mM in dimethylsulfoxide (DMSO) and evaluated at eleven serially diluted concentrations. IC50 and Ki values were derived by non-linear regression analysis.

[2] = target: T2, XIAP BIR3 (Homo sapiens, UniProt P98170); experiment: XIAP-BIR3/SMAC Homogeneous Time Resolved Fluorescence (HTRF) Assay; format: binding
T2 construct: His-BIR3 (241-356, XIAP)
T2 sequence (P98170 241-356): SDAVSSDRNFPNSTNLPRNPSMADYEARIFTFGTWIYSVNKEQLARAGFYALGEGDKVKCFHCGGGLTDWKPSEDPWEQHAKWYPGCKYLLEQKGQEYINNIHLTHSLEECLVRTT
Experimental: A. XIAP-BIR3/SMAC Homogeneous Time Resolved Fluorescence (HTRF) Assay Assays were performed in black, flat-bottom, 384-well plates. […] The reaction was incubated at room temperature for 60 minutes, following which 10 μl of mouse anti-6×His-terbium labeled Fab (Medarex, Cis-bio) was added to the reaction (40 μl) for an additional 30 minute incubation. […] Compounds were dissolved at 3 mM in dimethylsulfoxide (DMSO) and evaluated at eleven serially diluted concentrations. IC50 and Ki values were derived by non-linear regression analysis.

[3] = 0.5 nM N-His-BIR2-3 (125-356, C202A/C213G, XIAP), 20 nM fluorescein labeled dimeric SMAC peptide, HTRF signal, read-out: XIAP BIR2-3 IC50
[4] = 1 nM N-His-BIR3 (241-356, XIAP), 5 nM fluorescein labeled SMAC peptide, HTRF signal, read-out: XIAP BIR3 IC50

T1 sequence (P98170 125-356 C202A/C213G): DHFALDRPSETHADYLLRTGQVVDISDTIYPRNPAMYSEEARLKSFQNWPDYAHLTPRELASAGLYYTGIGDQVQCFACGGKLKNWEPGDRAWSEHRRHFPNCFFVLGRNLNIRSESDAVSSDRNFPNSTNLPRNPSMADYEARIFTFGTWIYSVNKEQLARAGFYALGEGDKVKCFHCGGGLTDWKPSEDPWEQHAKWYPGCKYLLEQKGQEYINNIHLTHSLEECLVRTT

SMILES | IC50 [1, 3] [nM] | IC50 [2, 4] [nM] | IC50 [1] [nM] | IC50 [2] [nM]
CN[C@@H](C)C(=O)N[C@H](C(=O)N1Cc2cc(N[C@H]3C[C@@H](C(=O)N[C@@H]4CCCc5ccccc54)N(C(=O)[C@@H](NC(=O)[C@H](C)NC)C(C)(C)C)C3)ccc2C[C@H]1C(=O)N[C@@H]1CCCc2ccccc21)C(C)(C)C [Example 20, (S)-2-((S)-3,3-Dimethyl-2-((S)-2-(methylamino)propanamido)butanoyl)-7-(((3S,5S)-1-((S)-3,3-dimethyl-2-((S)-2-(methylamino)propanamido)butanoyl)-5-(((R)-1,2,3,4-tetrahydronaphthalen-1-yl)carbamoyl)pyrrolidin-3-yl)amino)-N—((R)-1,2,3,4-tetrahydronaphthalen-1-yl)-1,2,3,4-tetrahydroisoquinoline-3-carboxamide] |  |  | 3 | 13
CN[C@@H](C)C(=O)N[C@H](C(=O)N1Cc2cc(O[C@H]3C[C@@H](C(=O)N[C@@H]4CCCc5ccccc54)N(C(=O)[C@@H](NC(=O)[C@H](C)NC)C(C)(C)C)C3)ccc2C[C@H]1C(=O)N[C@@H]1CCCc2ccccc21)C(C)(C)C [Example 21, (S)-2-((S)-3,3-Dimethyl-2-((S)-2-(methylamino)propanamido)butanoyl)-7-(((3S,5S)-1-((S)-3,3-dimethyl-2-((S)-2-(methylamino)propanamido)butanoyl)-5-(((R)-1,2,3,4-tetrahydronaphthalen-1-yl)carbamoyl)pyrrolidin-3-yl)oxy)-N—((R)-1,2,3,4-tetrahydronaphthalen-1-yl)-1,2,3,4-tetrahydroisoquinoline-3-carboxamide] |  |  | 3 | 30
CN[C@@H](C)C(=O)N[C@H](C(=O)N1Cc2cc([C@H]3C[C@@H](C(=O)N[C@@H]4CCCc5ccccc54)N(C(=O)[C@@H](NC(=O)[C@H](C)NC)C(C)(C)C)C3)ccc2C[C@H]1C(=O)N[C@@H]1CCCc2ccccc21)C(C)(C)C [Example 22, (S)-2-((S)-3,3-Dimethyl-2-((S)-2-(methylamino)propanamido)butanoyl)-7-((3R,5S)-1-((S)-3,3-dimethyl-2-((S)-2-(methylamino)propanamido)butanoyl)-5-(((R)-1,2,3,4-tetrahydronaphthalen-1-yl)carbamoyl)pyrrolidin-3-yl)-N—((R)-1,2,3,4-tetrahydronaphthalen-1-yl)-1,2,3,4-tetrahydroisoquinoline-3-carboxamide] |  |  | 1 | 2
CN[C@@H](C)C(=O)N[C@H](C(=O)N1Cc2cc([C@H]3C[C@@H](C(=O)N[C@@H]4CCCc5ccccc54)N(C(=O)[C@@H](NC(=O)[C@H](C)NC)C(C)(C)C)C3)ccc2C[C@H]1C(=O)N[C@@H]1CCCc2ccccc21)C1CCOCC1 [Example 24, (S)-7-((3R,5S)-1-((S)-3,3-Dimethyl-2-((S)-2-(methylamino)propanamido)butanoyl)-5-(((R)-1,2,3,4-tetrahydronaphthalen-1-yl)carbamoyl)pyrrolidin-3-yl)-2-((S)-2-((S)-2-(methylamino)propanamido)-2-(tetrahydro-2H-pyran-4-yl)acetyl)-N—((R)-1,2,3,4-tetrahydronaphthalen-1-yl)-1,2,3,4-tetrahydroisoquinoline-3-carboxamide] | 1 | 3 |  | 
CN[C@@H](C)C(=O)N[C@H](C(=O)N1Cc2ccc(C(=O)N[C@H]3C[C@@H](C(=O)N[C@@H]4CCCc5ccccc54)N(C(=O)[C@@H](NC(=O)[C@H](C)NC)C(C)(C)C)C3)cc2C[C@H]1C(=O)N[C@@H]1CCCc2ccccc21)C(C)(C)C [Example 25, (S)-2-((S)-3,3-Dimethyl-2-((S)-2-(methylamino)propanamido)butanoyl)-N6-((3S,5S)-1-((S)-3,3-dimethyl-2-((S)-2-(methylamino)propanamido)butanoyl)-5-(((R)-1,2,3,4-tetrahydronaphthalen-1-yl)carbamoyl)pyrrolidin-3-yl)-N^3—((R)-1,2,3,4-tetrahydronaphthalen-1-yl)-1,2,3,4-tetrahydroisoquinoline-3,6-dicarboxamide] | 3 | 4 |  | 

Continued, in another order:

IC50 [1, 3] [nM] | IC50 [2, 4] [nM] | SMILES | IC50 [1] [nM] | IC50 [2] [nM]
5 | 16 | CC[C@H](NC)C(=O)N[C@H](C(=O)N1C[C@@H](NC(=O)c2ccc3c(c2)CN(C(=O)[C@@H](NC(=O)[C@H](C)NC)C(C)(C)C)[C@H](C(=O)N[C@@H]2CCCc4ccccc42)C3)C[C@H]1C(=O)N[C@@H]1CCCc2ccccc21)C(C)(C)C [Example 15, (S)-N^7-((3S,5S)-1-((S)-3,3-Dimethyl-2-((S)-2-(methylamino)butanamido)butanoyl)-5-(((R)-1,2,3,4-tetrahydronaphthalen-1-yl)carbamoyl)pyrrolidin-3-yl)-2-((S)-3,3-dimethyl-2-((S)-2-(methylamino)propanamido)butanoyl)-N^3-((R)-1,2,3,4-tetrahydronaphthalen-1-yl)-1,2,3,4-tetrahydroisoquinoline-3,7-dicarboxamide] |  | 
10 | 19 | CCC(CC)[C@H](NC(=O)[C@H](CC)NC)C(=O)N1C[C@@H](NC(=O)c2ccc3c(c2)CN(C(=O)[C@@H](NC(=O)[C@H](C)NC)C(C)(C)C)[C@H](C(=O)N[C@@H]2CCCc4ccccc42)C3)C[C@H]1C(=O)N[C@@H]1CCCc2ccccc21 [Example 16, (S)-2-((S)-3,3-Dimethyl-2-((S)-2-(methylamino)propanamido)butanoyl)-N^7-((3S,5S)-1-((S)-3-ethyl-2-((S)-2-(methylamino)butanamido)pentanoyl)-5-(((R)-1,2,3,4-tetrahydronaphthalen-1-yl)carbamoyl)pyrrolidin-3-yl)-N^3-((R)-1,2,3,4-tetrahydronaphthalen-1-yl)-1,2,3,4-tetrahydroisoquinoline-3,7-dicarboxamide] |  | 
2 | 2 | CCC(CC)[C@H](NC(=O)[C@H](C)NC)C(=O)N1C[C@@H](NC(=O)c2ccc3c(c2)CN(C(=O)[C@@H](NC(=O)[C@H](C)NC)C(C)(C)C)[C@H](C(=O)N[C@@H]2CCCc4ccccc42)C3)C[C@H]1C(=O)N[C@@H]1CCCc2ccccc21 [Example 17, (S)-2-((S)-3,3-Dimethyl-2-((S)-2-(methylamino)propanamido)butanoyl)-N^7-((3S,5S)-1-((S)-3-ethyl-2-((S)-2-(methylamino)propanamido)pentanoyl)-5-(((R)-1,2,3,4-tetrahydronaphthalen-1-yl)carbamoyl)pyrrolidin-3-yl)-N^3-((R)-1,2,3,4-tetrahydronaphthalen-1-yl)-1,2,3,4-tetrahydroisoquinoline-3,7-dicarboxamide] |  | 
4 | 9 | CCN[C@@H](C)C(=O)N[C@H](C(=O)N1Cc2cc(C(=O)N[C@H]3C[C@@H](C(=O)N[C@@H]4CCCc5ccccc54)N(C(=O)[C@@H](NC(=O)[C@H](C)NC)C(C)(C)C)C3)ccc2C[C@H]1C(=O)N[C@@H]1CCCc2ccccc21)C(CC)CC [Example 18, (S)-N^7-((3S,5S)-1-((S)-3,3-Dimethyl-2-((S)-2-(methylamino)propanamido)butanoyl)-5-(((R)-1,2,3,4-tetrahydronaphthalen-1-yl)carbamoyl)pyrrolidin-3-yl)-2-((S)-3-ethyl-2-((S)-2-(ethylamino)propanamido)pentanoyl)-N^3-((R)-1,2,3,4-tetrahydronaphthalen-1-yl)-1,2,3,4-tetrahydroisoquinoline-3,7-dicarboxamide] |  | 
2 | 7 | CCC(CC)[C@H](NC(=O)[C@H](CC)NC)C(=O)N1Cc2cc(C(=O)N[C@H]3C[C@@H](C(=O)N[C@@H]4CCCc5ccccc54)N(C(=O)[C@@H](NC(=O)[C@H](C)NC)C(C)(C)C)C3)ccc2C[C@H]1C(=O)N[C@@H]1CCCc2ccccc21 [Example 19, (S)-N^7-((3S,5S)-1-((S)-3,3-Dimethyl-2-((S)-2-(methylamino)propanamido)butanoyl)-5-(((R)-1,2,3,4-tetrahydronaphthalen-1-yl)carbamoyl)pyrrolidin-3-yl)-2-((S)-3-ethyl-2-((S)-2-(methylamino)butanamido)pentanoyl)-N^3-((R)-1,2,3,4-tetrahydronaphthalen-1-yl)-1,2,3,4-tetrahydroisoquinoline-3,7-dicarboxamide] |  | 
3 | 4 | CN[C@@H](C)C(=O)N[C@H](C(=O)N1Cc2cc([C@H]3C[C@@H](C(=O)N[C@@H]4CCCc5ccccc54)N(C(=O)[C@@H](NC(=O)[C@H](C)NC)C(C)(C)C)C3)ccc2C[C@H]1C(=O)N[C@H](C)c1ccccc1F)C(C)(C)C [Example 23, (S)-2-((S)-3,3-Dimethyl-2-((S)-2-(methylamino)propanamido)butanoyl)-7-((3R,5S)-1-((S)-3,3-dimethyl-2-((S)-2-(methylamino)propanamido)butanoyl)-5-(((R)-1,2,3,4-tetrahydronaphthalen-1-yl)carbamoyl)pyrrolidin-3-yl)-N—((R)-1-(2-fluorophenyl)ethyl)-1,2,3,4-tetrahydroisoquinoline-3-carboxamide] |  | 
